# Entries after “also recorded” stand apart in the source; their conditions may differ.
# Assays:
# human PMN = test: PAF mediated SOCE in human PMN; assay type: cell-based
# PMN [1] = test: fMLP-mediated Ca2+ entry in PMN; assay type: cell-based, human
# Experimental: (§1) PMN were suspended in HEPES buffer with 1 mM CaCl2 and 0.1% BSA and incubated with 2 μg/mL fura-2AM for 30 minutes in the dark at 37° C. Cells were divided into aliquots (2×10^6 PMN) and placed on ice in the dark. Prior to study, samples were warmed to 37°, centrifuged (4500 RPM, 5 sec) and supernatants removed. Pellets were resuspended in 200 μl of BSA-free and ‘nominally calcium-free’ HEPES buffer (with 0.3 mM EGTA) and finally injected into cuvettes containing 2.8 mL of the same buffer for study. Intracellular free calcium concentration ([Ca2+]i) was determined from the fluorescence at 505 nm using 340/380 nm dual wavelength excitation. (Fluoromax-2, Jobin-SPEX, Edison, N.J.).
# To confirm that the effects of cholesterol on GPCR mediated Ca^2+ entry were generalized and not restricted to PAF we evaluated the effects of cholesterol on fMLP-mediated Ca^2+ entry. Consistent with PAF, fMLP-linked Ca^2+ entry responses were suppressed by MβCD and augmented by cholesterol (FIG. 23, upper panel).
# PMN [2] = test: PMN calcium entry responses to S1P; assay type: cell-based, human
# Experimental: To evaluate whether Ca^2+-entry responses to S1P were raft dependent, we then disrupted lipid rafts using MBCD to bind raft cholesterol.
# as §1
# PMN lipid raft fractions = test: Cholesterol content of PMN lipid raft fractions isolated by ultracentrifugation; assay type: cell-based, human; details: for change of cholesterol in raft fractions versus higher density fractions: cholesterol 10 μg/ml 10 minutes or MβCD 10 μM/10 min; for ratio of cholesterol to protein / cholesterol concentration in the lowest density raft fractions: PMN pretreated, micromolar concentrations, absence of albumin
# Experimental: Lipid raft fractions were isolated by ultracentrifugation from PMN treated with S1P, cholesterol or buffer only (“none”). […] After isolation from 2-3 normal volunteer donors, 5×10^7 PMN were divided into aliquots. Aliquots were treated at 37° C. with 10 μg/ml water-soluble cholesterol for 10 minutes, MβCD (10 μM/10 min) or with vehicle. All steps thereafter were performed on ice. Cells were spun and pellets resuspended in 1 ml of base buffer (20 mM Tris-HCl pH 7.8, 250 mM Sucrose, 1 mM CaCl2 and 1 mM MgCl2) containing protease inhibitor and 50 μg/ml calpain inhibitor 1. Cells were disrupted by passage through a 22 g 3″ needle 10 times. Fragmented cells were sonicated 5×20 s, cooling the cells on ice between sonications. […] The cell pellets were resuspended in 1 ml base buffer with inhibitors and the sonication repeated. The two postnuclear supernatants were combined and an equal volume of 50% Optiprep added. […] Tubes were then centrifuged (52,000 g; 3 hours) and serial 670 μl fractions were collected from the top of the tube using careful pipetting. Protein in each fraction was assayed by micro BCA assay method (Pierce, Rockford Ill.). Cholesterol was assayed using an Amplex Red cholesterol assay kit (Molecular Probes). Alkaline phosphatase was assayed using p-nitrophenyl phosphate as substrate. […] No detergents were used in raft preparation.
# PMN [3] = test: Thapsigargin (TG) initiated Ca2+ entry in PMN; assay type: cell-based, human
# Experimental: as §1
# Since cholesterol had no discernable effect on ER Ca^2+ store release in response to PAF we examined the possibility that could play a direct role in the regulation of store-operated Ca^2+ entry; a Ca^2+ entry mechanism that is completely independent of GPCR activation. To study this we used thapsigargin (TG). TG blocks ER Ca^2+ ATPase pumps, thus depleting ER Ca^2+ stores directly and causing calcium entry independent of GPCR activation.
# TRPC1 = test: Western blotting for TRPC1 in PMN raft fractions; assay type: cell-based, human; details: for global TRPC1 protein expression in whole cell lysates: 10 minutes exposure
# Experimental: TRPC1 is a prototypic calcium channel protein of the TRP family. PMN express multiple TRPC proteins that are known to traffic to the cell membrane during Ca entry. We therefore studied TRPC1 raft-trafficking in response to cholesterol as an initial proof of principle that raft cholesterol concentration might regulate the distribution of multiple Ca^2+-influx related proteins to or from the cell membrane. We analyzed 20 μl of each gradient fraction by electrophoresis on a SDS gel followed by Western blotting for TRPC1 protein. The primary rabbit anti-human TRPC1 antibody (Santa Cruz) was used at 1:1,600 dilution. Secondary goat anti-rabbit antibody was used at 1:16,000 dilution. An ECL Western blotting detection kit was used to develop the blots which were imaged as above.
# We therefore used Western blots to probe for TRPC1 in fractions 2-4 of pooled normal volunteer PMN fractionated with or without prior incubation in 10 μg/mL cholesterol (FIG. 26).
# Subsequently, we sought to determine the source of the increased TRPC1 in the lipid raft fractions. Whole cell lysates from cholesterol treated and untreated cells were compared (not shown). […] Since the events leading to calcium entry are very rapid, later time points were not studied. Finally, we assayed TRPC1 in individual raft fractions from concurrently treated and analyzed PMN specimens (FIG. 27). […] Thus a redistribution of TRPC1 occurs in response to cholesterol treatment which appears to reflect trafficking of the protein to raft fractions rather than de novo synthesis.
# PMN [4] = test: Calcium-entry dependent respiratory burst (RB) initiated by fMLP/Tg in PMN; assay type: cell-based, human; details: for effect of cholesterol depletion on fMLP/Tg RB: MBCD 10 mM/10 min, fMLP/TG 100 nM/1 uM
# Experimental: The graph represents Vmax slopes values. n=2 for Blank, Cholesterol Blank and Cholesterol alone. The others are n=6.
# RB was assessed in PMN suspensions. Briefly, 2×10^6 PMN were suspended in 3 ml of HEPES buffer with 0.1% BSA and 15 ng/ml of 1,2,3-dihydrorhodamine (DHR) added. Cells were studied at 37° C. with constant stirring using excitation at 488 nm and emission at 530 nm. RB was allowed to become linear and achieve maximal reaction rate (Vmax). The fluorescent intensity (FI) curve of oxidized DHR was compiled for 60 seconds during Vmax. Curve-fitting analysis was performed over the linear portion (Sigma-Plot 4.0, SPSS, Chicago, Ill.). Vmax was assessed as the first derivative of the fluorescent intensity in counts per second (CPS).
# Next we evaluated the functional relevance of cholesterol-mediated Ca^2+ influx. We studied a PMN model where RB depends entirely on extra-cellular calcium entry to see if RB would vary with the incorporation of cholesterol into rafts.
# To do this, PMN were pre-incubated with MβCD, with vehicle or with varying concentrations of cholesterol to vary membrane raft cholesterol content (FIG. 21B). After the pre-incubation, RB was initiated using fMLP/Tg.
# human neutrophils (PMN) = test: Cholesterol-mediated Ca2+ influx in human PMN (fura-2 calcium spectrofluorometry); assay type: cell-based; details: for effect of calcium channel blocker on cholesterol-mediated PMN calcium entry: dose response curves not shown; for effect on cholesterol mediated Ca2+ influx (actin reorganization): Caly A 50 nM in cuvette, Cyto D pretreatment 2.5 uM 15 min, cholesterol 10 ug/ml
# PMN [5] = test: Store-operated calcium entry (SOCE) initiated by fMLP and Tg in PMN; assay type: cell-based, human
# Experimental: We hypothesized that calcium-entry dependent functions like RB would depend upon S1P synthesis and subsequent S1P interactions with rafts. Thus we developed a calcium-entry dependent RB model where Ca entry was manipulated by sphingosine kinase (SphK) inhibition, which inhibits S1P synthesis in response to internal calcium store release. […] Note that the vast majority of cell [Ca^2+] increases are due to calcium influx on re-calcifying the medium.
# as §1
# PMN lipid rafts (GM-1) = test: Immunofluorescent microscopy for GM-1 (FITC-CTB) in PMN rafts; assay type: cell-based, human; details: free cholesterol 10 μg/mL
# [6] = fMLP/Tg RB after pre-incubation
molecule,measurement,setting,value
methyl-β cyclodextrin [MβCD],effect on release of Ca2+ from cell stores (PAF),human PMN; PAF 100 nM,no effect whatsoever
same,effect on PAF-initiated Ca2+ entry after cholesterol sequestration,"human PMN; PAF 100 nM, MBCD 10 mM 10 minutes",blocked
same,effect on fMLP-linked Ca2+ entry responses,PMN [1],suppressed
same,effect of MβCD on patient PMN Ca2+ entry responses to S1P,PMN [2]; injured patients' PMN,further suppressed
same,effect of raft disruption on PMN calcium entry responses to S1P,PMN [2]; n=3,completely blocks calcium entry
same,effect of raft disruption on PMN calcium entry responses to S1P,"PMN [2]; n=3, listed as MBCD",completely blocked
same,change of cholesterol in raft fractions versus higher density fractions,PMN lipid raft fractions,removed cholesterol from raft fractions
same,effect on TG initiated Ca2+ entry,PMN [3],markedly inhibited
same,global TRPC1 protein expression in whole cell lysates,TRPC1,No differences in global TRPC1 protein expression
same,effect of cholesterol depletion on fMLP/Tg RB,PMN [4],inhibited RB; also recorded: clear suppression of RB; also recorded: markedly suppressed RB responses
same,effect of cholesterol depletion on fMLP/Tg RB,PMN [4]; listed as MBCD,blocks RB; also recorded: attenuated
COc1ccc(CCCOC(Cn2ccnc2)c2ccc(OC)cc2)cc1 (centres unmarked) [SKF96365],IC50,"human neutrophils (PMN); Neutrophil, human PMN, 3-4 experiments per condition, read-out: IC50 for block of cholesterol-mediated PMN calcium entry",~30 µM
same,effect of calcium channel blocker on cholesterol-mediated PMN calcium entry,human neutrophils (PMN); human PMN,inhibited
same,effect of calcium channel blocker on cholesterol-mediated PMN calcium entry,"human neutrophils (PMN); human PMN, listed as SKF",quantitatively inhibited
Oc1ccc(Nc2nc(-c3ccc(Cl)cc3)cs2)cc1 [SKI-2],effect on SOCE initiated by fMLP and Tg,"PMN [5]; fMLP 100 nM, Tg 1 uM",inhibited; also recorded: suppressing SOCE
same,effect of SphK inhibition on fMLP/Tg induced RB,"PMN [4]; 30 uM, n=4",blocked fMLP/Tg induced RB down to background levels
COc1ccc(CCN(C)CCCC(C#N)(c2ccc(OC)c(OC)c2)C(C)C)cc1OC (centres unmarked) [verapamil],effect of calcium channel blocker on cholesterol-mediated PMN calcium entry,human neutrophils (PMN); human PMN,not inhibited; also recorded: no effect
same,effect of calcium channel blocker on cholesterol-mediated PMN calcium entry,"human neutrophils (PMN); human PMN, listed as VER",no effect at any concentration
CC(C)CCC[C@@H](C)[C@H]1CC[C@H]2[C@@H]3CC=C4C[C@@H](O)CC[C@]4(C)[C@H]3CC[C@]12C [cholesterol],effect on release of Ca2+ from cell stores (PAF),human PMN; PAF 100 nM,no effect upon Ca^2+ store mobilization
same,effect of cholesterol present in cuvette on PAF Ca2+ entry in normal cells,"human PMN; normal PMN, brief exposure",increased Ca^2+ entry
same,rescue of PAF Ca2+ entry by cholesterol after MβCD,human PMN; small amounts of cholesterol (3 ug/ml final),rescued Ca^2+entry
same,effect on fMLP-linked Ca2+ entry responses,PMN [1],augmented
same,effect of very high cholesterol concentrations on fMLP-mediated Ca2+ entry,PMN [1]; very high cholesterol concentrations,suppressed calcium entry
same,effect of cholesterol concentrations above 10 μg/mL on PMN Ca2+ uptake,"human neutrophils (PMN); above 10 μg/mL, direct stimulation and combination with S1P",suppress PMN Ca^2+ uptake
same,direct calcium entry caused by cholesterol at re-addition dose,human neutrophils (PMN); cholesterol 3 ug/ml final,does not itself cause calcium entry
same,direct effect of cholesterol on calcium entry into human PMN,"human neutrophils (PMN); free cholesterol, albumin-free media","caused Ca entry without any antecedent release of calcium stores; also recorded: potent, dose-dependent activator; also recorded: direct dose-related response"
same,effect of cholesterol on patient PMN calcium entry response to S1P,"PMN [2]; injured patients' PMN, cholesterol 30 ug/ml, n=8 PMN isolates",restored to healthy volunteer levels; also recorded: exceed basal levels
same,reversal of MβCD effect on S1P calcium entry by cholesterol replenishment,PMN [2]; n=3,reversible; also recorded: reversal of the MβCD effect
same,ratio of cholesterol to protein / cholesterol concentration in the lowest density raft fractions,PMN lipid raft fractions,more than doubles
same,change of cholesterol in raft fractions versus higher density fractions,PMN lipid raft fractions,incorporated preferentially into the low density fractions
same,reversal of MβCD inhibition of TG Ca2+ entry by cholesterol re-addition,PMN [3],immediately reversed and even overcome
same,membrane GM-1 binding and raft coalescence,PMN lipid rafts (GM-1),increased membrane GM-1 available for binding
same,global TRPC1 protein expression in whole cell lysates,TRPC1,No differences in global TRPC1 protein expression
same,TRPC1 protein in membrane lipid raft fractions,TRPC1; pre-incubation in 10 μg/mL cholesterol,increases the amount of TRPC1 protein; also recorded: redistribution of the TRPC1 signal from higher density fractions into the raft fractions
same,rescue of RB by cholesterol in MBCD treated neutrophils,PMN [4]; cholesterol 30 ug/ml,rescued RB from MβCD inhibition; also recorded: significantly rescued that RB
same,external cholesterol concentration yielding optimal PMN oxidant production,PMN [4]; [6],10 µg/mL
same,external cholesterol concentration yielding optimal PMN oxidant production (molar),PMN [4]; [6],~25 µM
same,effect of increasing (high) cholesterol concentrations on RB,"PMN [4]; pre-incubation, higher concentrations (FIG. 21B columns 6-7)",decreased the degree of respiratory burst
same,effect of lower cholesterol concentrations on RB,"PMN [4]; pre-incubation, lower concentrations (FIG. 21B columns 3-5)",dose-dependent augmentation of RB
"CCCCCCCCCCCCC/C=C/[C@@H](O)[C@@H](N)COP(=O)(O)O [S1P, sphingosine 1-phosphate, reference compound]",reversal of SKI-2 inhibition of SOCE by exogenous S1P,"PMN [5]; 5 M S1P, 30 μM SKI-2",totally reversed; also recorded: reverses 30 μM SKI-2 inhibition
same,ratio of cholesterol to protein / cholesterol concentration in the lowest density raft fractions,PMN lipid raft fractions,increases in cholesterol concentration
same,ratio of cholesterol to protein / cholesterol concentration in the lowest density raft fractions,PMN lipid raft fractions; listed as SIP,even greater increases in cholesterol concentration
same,rescue of RB after SKI-2 inhibition,PMN [4]; S1P 5 uM after SKI-2 30 uM,rescue of RB
same,restoration of RB by S1P after MβCD cholesterol depletion,PMN [4]; n=4-6,restored RB to control levels
"[La+3] [La^3+, lanthanum]",inhibition of cholesterol mediated PMN Ca2+ influx by lanthanum,human neutrophils (PMN); 1 mM,inhibited; also recorded: almost totally inhibits
"COC[C@@H]([C@H](O)[C@H](O)C(=O)NCC[C@H](C)c1nc(/C=C/C[C@@H]2O[C@]3(C[C@@H](O)[C@@H]2C)O[C@H]([C@H](C[C@H](O)[C@H](C)[C@H](O)[C@H](C)/C=C(C)/C(C)=C/C=C/C(C)=C\C#N)OC)[C@H](OP(=O)(O)O)C3(C)C)co1)N(C)C [CalyA, Calyculin A]",effect on cholesterol mediated Ca2+ influx (actin reorganization),human neutrophils (PMN),abolished
"C=C1[C@@H](C)[C@H]2[C@H](Cc3ccccc3)NC(=O)[C@]23[C@H](OC(C)=O)/C=C/[C@@](C)(O)C(=O)[C@@H](C)C/C=C/[C@H]3[C@@H]1O [CytoD, Cytochalasin D]",effect on cholesterol mediated Ca2+ influx (actin reorganization),human neutrophils (PMN),reversed the inhibition

# Source: patent US7879821B2, “Method for modulating inflammatory responses by altering plasma lipid levels” (University of Medicine and Dentistry of New Jersey, priority 2006, dated 2011)
